Experimental data taken from publication PMC11369877 (Therapeutic Advances in Medical Oncology, 2024).

Key:
[1] = human, in vivo
Asian patients = details: palbociclib plus letrozole, PALOMA-4 trial; cited from earlier work

geometric mean Rac,AUC [1]	Structure (SMILES)	neutropenia, grade 3 (Asian patients) [%]	neutropenia, grade 4 (Asian patients) [%]
3.66–4.15	CC(C)(C#N)c1cc(Cn2cncn2)cc(C(C)(C)C#N)c1 [anastrozole]		
6.25–6.41	N#Cc1ccc(C(c2ccc(C#N)cc2)n2cncn2)cc1 [letrozole]		
	CC(=O)c1c(C)c2cnc(Nc3ccc(N4CCNCC4)cn3)nc2n(C2CCCC2)c1=O [palbociclib]	72	12.5
